Assay results reported in patent US20260069588A1, “VEPDEGESTRANT FOR USE IN TREATING CANCER” (Arvinas Operation, Inc., priority 2022, published 2026).

Legend:
BCRP = BCRP (Homo sapiens, UniProt Q9UNQ0); assay: Efflux transporter substrate assessment (inside-out vesicular assay), BCRP; assay type: in vitro ADME
[1] = female, human, in vivo
Source text: The severity of adverse events was graded according to the National Cancer Institute Common Terminology Criteria for Adverse Events (NCI CTCAE) version 5.0.

[2] = in vivo
Source text: TEAE's from participants in both studies have been combined and are described below.

Aiolos = Aiolos (Homo sapiens, UniProt Q9UKT9); assay: Cereblon neomorphic substrate degradation, Aiolos; assay type: cell-based; conditions: in vitro
Sequence of Aiolos (Q96SW2 whole entry partner): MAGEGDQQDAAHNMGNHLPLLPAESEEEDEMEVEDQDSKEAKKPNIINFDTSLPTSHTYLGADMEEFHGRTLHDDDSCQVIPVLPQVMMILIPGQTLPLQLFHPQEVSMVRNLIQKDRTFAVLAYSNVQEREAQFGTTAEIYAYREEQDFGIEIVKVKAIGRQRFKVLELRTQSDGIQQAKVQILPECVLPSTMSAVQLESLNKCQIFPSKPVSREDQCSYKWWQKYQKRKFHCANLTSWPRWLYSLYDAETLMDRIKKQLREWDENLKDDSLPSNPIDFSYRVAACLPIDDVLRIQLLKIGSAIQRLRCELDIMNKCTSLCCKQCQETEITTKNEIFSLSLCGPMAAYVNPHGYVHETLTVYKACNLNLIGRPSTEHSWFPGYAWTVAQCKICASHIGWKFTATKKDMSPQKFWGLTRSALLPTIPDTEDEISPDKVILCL
Sequence of Aiolos (Q16531 whole entry partner): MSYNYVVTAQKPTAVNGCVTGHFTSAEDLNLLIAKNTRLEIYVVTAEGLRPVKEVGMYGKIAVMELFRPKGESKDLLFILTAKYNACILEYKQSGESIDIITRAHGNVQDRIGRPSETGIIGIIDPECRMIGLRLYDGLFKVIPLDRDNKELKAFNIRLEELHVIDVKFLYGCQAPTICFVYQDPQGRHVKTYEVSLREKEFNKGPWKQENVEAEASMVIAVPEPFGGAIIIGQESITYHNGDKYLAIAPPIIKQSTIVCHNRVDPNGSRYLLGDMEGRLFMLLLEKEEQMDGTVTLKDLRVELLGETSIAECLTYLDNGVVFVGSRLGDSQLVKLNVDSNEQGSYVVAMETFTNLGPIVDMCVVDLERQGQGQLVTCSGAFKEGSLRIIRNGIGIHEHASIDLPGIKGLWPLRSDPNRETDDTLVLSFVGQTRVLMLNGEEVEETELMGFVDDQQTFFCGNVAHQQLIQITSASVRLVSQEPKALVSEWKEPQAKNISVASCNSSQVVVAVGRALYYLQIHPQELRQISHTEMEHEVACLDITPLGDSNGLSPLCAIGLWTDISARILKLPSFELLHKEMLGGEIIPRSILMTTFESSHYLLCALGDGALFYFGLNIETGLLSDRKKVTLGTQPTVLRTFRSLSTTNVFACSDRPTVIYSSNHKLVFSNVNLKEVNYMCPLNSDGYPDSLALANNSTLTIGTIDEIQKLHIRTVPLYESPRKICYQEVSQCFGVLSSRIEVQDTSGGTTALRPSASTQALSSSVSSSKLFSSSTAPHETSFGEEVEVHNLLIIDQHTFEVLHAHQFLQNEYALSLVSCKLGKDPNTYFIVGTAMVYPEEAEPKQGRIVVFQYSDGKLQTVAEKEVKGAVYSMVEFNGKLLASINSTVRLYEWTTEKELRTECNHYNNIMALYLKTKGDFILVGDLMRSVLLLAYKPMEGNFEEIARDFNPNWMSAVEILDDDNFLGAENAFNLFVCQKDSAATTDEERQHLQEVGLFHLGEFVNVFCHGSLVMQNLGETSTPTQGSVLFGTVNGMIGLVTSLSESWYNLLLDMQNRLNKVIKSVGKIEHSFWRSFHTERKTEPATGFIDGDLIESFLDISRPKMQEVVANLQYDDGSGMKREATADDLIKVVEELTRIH
Sequence of Aiolos (Q9UKT9 whole entry): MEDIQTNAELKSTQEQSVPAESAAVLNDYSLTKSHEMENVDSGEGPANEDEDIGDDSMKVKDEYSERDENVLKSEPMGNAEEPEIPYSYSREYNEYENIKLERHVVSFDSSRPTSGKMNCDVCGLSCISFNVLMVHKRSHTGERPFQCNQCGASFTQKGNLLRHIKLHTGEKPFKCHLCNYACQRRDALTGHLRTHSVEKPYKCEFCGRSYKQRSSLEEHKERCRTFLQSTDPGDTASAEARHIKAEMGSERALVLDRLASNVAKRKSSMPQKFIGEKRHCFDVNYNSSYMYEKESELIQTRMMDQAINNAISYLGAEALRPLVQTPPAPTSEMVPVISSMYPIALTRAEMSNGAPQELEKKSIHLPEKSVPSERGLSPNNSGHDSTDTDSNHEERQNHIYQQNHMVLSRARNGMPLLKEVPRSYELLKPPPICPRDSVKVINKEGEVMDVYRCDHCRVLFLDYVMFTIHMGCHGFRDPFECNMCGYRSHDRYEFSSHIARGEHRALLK
Source text: These drugs bind to cereblon and promote the degradation of novel (neomorphic) substrates.

[3] = Plasma protein binding, monkey; assay type: in vitro ADME; conditions: read-out: free fraction
MCF7 cells = assay: Live-cell imaging proliferation, MCF7; assay type: cell-based; conditions: Homo sapiens, 144 h; MCF7, up to 6 days
Source text: Full growth of the cells over this time period is shown by extent of cell confluence with dimethyl sulfoxide (DMSO).

clinical = conditions: human, in vivo; for AUC: AUCtau
Protocol: Study Design: In the FIH Study: Part A is a Phase I monotherapy dose escalation, and Part B is a Phase 2 monotherapy expansion at 2 RP2D doses (200 mg QD, 500 mg QD).

[4] = Clinical Pharmacology Study PPI (esomeprazole) cohort: single-dose PK; assay type: in vivo, human; conditions: 200 mg
Source text: Study Design: The Clinical Pharmacology Study consists of 3 independent cohorts: 1) an open-label, randomized, 2-period, crossover Fed/Fasted cohort to determine food effects; 2) an open-label, 2-period, fixed sequence PPI cohort to evaluate interactions with esomeprazole; and 3) an open-label, randomized, 2 period, crossover rBA cohort to evaluate 2 tablet formulations.

[5] = 3-month GLP oral toxicity study in rats; assay type: in vivo, rat; conditions: for AUC(0-t) / Cmax: po, 300 mg/kg/day
Protocol: Male and female rats, 10/sex/group, were administered 0 (vehicle), 30, 100, or 300 mg/kg/day. Assessment of toxicity was based on mortality, clinical observations, BWs, food consumption, ophthalmic examinations, and clinical and anatomic pathology. Blood samples for TK were obtained from a satellite group of animals.

[6] = Preclinical PK after PO or intravenous dose; set-up: species or system mouse, dog, and monkey; conditions: rat, in vivo
ER = molecular target: T1, ER (Homo sapiens, UniProt P03372); assay: ER degradation in ER+ cell lines (MCF7); assay type: cell-based; set-up: endogenous in cells; host or cells: MCF7 (and a panel of unnamed ER+ cell lines); conditions: MCF7 cells
T1 sequence (P03372 1-595): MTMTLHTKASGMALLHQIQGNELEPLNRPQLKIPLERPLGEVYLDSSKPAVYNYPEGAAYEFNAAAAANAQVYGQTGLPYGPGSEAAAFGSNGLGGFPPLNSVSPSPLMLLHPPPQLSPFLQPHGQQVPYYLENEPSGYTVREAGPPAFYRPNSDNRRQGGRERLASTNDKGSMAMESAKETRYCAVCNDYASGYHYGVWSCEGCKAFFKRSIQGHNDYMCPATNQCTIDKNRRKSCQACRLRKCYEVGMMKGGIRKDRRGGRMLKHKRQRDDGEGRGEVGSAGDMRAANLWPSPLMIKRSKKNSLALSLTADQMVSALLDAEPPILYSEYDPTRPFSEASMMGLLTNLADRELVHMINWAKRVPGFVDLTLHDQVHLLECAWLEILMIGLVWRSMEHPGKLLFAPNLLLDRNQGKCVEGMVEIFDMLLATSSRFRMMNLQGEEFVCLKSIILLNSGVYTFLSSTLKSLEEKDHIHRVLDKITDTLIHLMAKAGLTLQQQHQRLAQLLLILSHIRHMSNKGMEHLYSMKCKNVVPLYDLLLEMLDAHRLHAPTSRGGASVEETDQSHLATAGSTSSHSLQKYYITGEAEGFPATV

[7] = Plasma protein binding, mouse; assay type: in vitro ADME; conditions: read-out: free fraction
progesterone receptor = progesterone receptor (Homo sapiens, UniProt P06401); assay: Secondary pharmacodynamics binding, progesterone receptor; conditions: in vitro
Sequence of progesterone receptor (P06401 whole entry, species assumed): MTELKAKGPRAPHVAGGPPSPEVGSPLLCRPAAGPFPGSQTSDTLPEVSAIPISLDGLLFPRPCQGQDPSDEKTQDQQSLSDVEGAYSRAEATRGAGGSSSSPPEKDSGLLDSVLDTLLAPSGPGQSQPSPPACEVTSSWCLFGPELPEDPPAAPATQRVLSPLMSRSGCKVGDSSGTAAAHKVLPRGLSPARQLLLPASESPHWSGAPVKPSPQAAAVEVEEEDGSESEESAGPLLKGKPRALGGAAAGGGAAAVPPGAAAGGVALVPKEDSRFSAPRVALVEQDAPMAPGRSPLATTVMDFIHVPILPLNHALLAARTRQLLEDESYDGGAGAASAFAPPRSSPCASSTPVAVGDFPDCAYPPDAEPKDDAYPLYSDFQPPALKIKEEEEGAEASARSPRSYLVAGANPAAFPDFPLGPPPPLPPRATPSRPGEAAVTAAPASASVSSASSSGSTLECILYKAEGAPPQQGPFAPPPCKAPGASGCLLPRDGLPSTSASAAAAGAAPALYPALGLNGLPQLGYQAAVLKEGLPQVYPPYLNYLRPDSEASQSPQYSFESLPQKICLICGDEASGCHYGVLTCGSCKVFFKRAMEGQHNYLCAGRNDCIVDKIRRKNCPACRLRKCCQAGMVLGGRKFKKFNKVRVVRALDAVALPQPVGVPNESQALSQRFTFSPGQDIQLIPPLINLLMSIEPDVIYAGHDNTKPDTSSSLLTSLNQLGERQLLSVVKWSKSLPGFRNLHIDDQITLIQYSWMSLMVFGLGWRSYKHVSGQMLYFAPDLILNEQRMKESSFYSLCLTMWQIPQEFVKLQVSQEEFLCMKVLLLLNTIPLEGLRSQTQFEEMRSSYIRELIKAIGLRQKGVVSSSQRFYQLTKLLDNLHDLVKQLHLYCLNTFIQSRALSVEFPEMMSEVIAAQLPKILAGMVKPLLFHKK

Sequence of BCRP (Q9UNQ0 whole entry): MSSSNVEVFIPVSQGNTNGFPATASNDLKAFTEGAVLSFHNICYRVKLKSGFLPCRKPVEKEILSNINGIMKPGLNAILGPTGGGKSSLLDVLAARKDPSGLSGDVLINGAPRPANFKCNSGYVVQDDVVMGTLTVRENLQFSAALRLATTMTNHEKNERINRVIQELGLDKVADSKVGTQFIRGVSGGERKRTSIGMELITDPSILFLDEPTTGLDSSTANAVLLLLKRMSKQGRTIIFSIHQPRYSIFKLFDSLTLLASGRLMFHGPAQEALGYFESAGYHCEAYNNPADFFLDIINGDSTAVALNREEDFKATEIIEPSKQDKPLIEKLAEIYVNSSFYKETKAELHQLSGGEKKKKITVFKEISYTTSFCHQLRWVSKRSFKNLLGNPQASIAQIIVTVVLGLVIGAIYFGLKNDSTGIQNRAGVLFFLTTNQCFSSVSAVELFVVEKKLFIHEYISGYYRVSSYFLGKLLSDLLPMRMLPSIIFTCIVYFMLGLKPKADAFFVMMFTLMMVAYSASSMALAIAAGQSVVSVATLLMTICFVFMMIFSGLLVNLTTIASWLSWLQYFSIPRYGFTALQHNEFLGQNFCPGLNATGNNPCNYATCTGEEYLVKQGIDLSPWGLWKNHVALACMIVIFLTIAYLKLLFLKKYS

With `O=C1CC[C@H](N2Cc3cc(N4CCN(CC5CCN(c6ccc([C@@H]7c8ccc(O)cc8CC[C@@H]7c7ccccc7)cc6)CC5)CC4)ccc3C2=O)C(=O)N1` [Compound A, (S)-3-(5-(4-((1-(4-((1R,2S)-6-hydroxy-2-phenyl-1,2,3,4-tetrahydronaphthalen-1-yl)phenyl)piperidin-4-yl)methyl)piperazin-1-yl)-1-oxoisoindolin-2-yl)piperidine-2,6-dione] the “substrate of BCRP” value (BCRP) was “unlikely to be a substrate”, the “TEAE COVID-19” value [1] was 11.8% and the deaths [2] was “No deaths were reported”. The “degradation of Aiolos” value (Aiolos) was “did not degrade”, the fraction unbound at 1 μM [3] was 0.04 and the GI50 (MCF7 cells) was 4 nM. The half-life (clinical; 30 mg) was 31 h, the Tmax (clinical; 30 mg, Tmax) was 4 h and the half-life (clinical; 60 mg) was 33 h. The Tmax (clinical; 60 mg, Tmax) was 6 h, the half-life (clinical; 100 mg) was 29 h and the Tmax (clinical; 100 mg, Tmax) was 5.8 h. It also gave a half-life (clinical; 120 mg) of 27 h, a Cmax (clinical; 120 mg) of 404 ng/mL and a Tmax (clinical; 120 mg, Tmax) of 5.9 h. For the same compound, the half-life (clinical; 180 mg) was 26 h, the Cmax (clinical; 180 mg) was 555 ng/mL and the Tmax (clinical; 180 mg, Tmax) was 6 h. For the same compound, the half-life (clinical; 200 mg) was 23 h, the AUC (clinical; 200 mg) was 9110 ng·h/mL and the Cmax (clinical; 200 mg) was 534 ng/mL. The Tmax (clinical; 200 mg, Tmax) was 5.8 h, the AUC(0-t) (clinical; 250 mg, AUCtau (AUC0-8)) was 2920 ng·h/mL and the AUC(0-t) (clinical; 250 mg, AUCtau (AUC0-12)) was 20600 ng·h/mL. It also gave a Tmax (clinical; 250 mg, Tmax) of 6.9 h, a half-life (clinical; 360 mg) of 28 h and a Tmax (clinical; 360 mg, Tmax) of 5.8 h. The half-life (clinical; 500 mg) was 28 h, the Cmax (clinical; 500 mg) was 1050 ng/mL and the Tmax (clinical; 500 mg, Tmax) was 4.9 h. The half-life (clinical; 700 mg) was 12.4 h, the AUC (clinical; 700 mg) was 19600 ng·h/mL and the Cmax (clinical; 700 mg) was 1450 ng/mL. For the same compound, the Tmax (clinical; 700 mg, Tmax) was 5.8 h, the Tmax (clinical; Tmax) was 4.1 h and the Tmax (clinical; median Tmax across dose levels) was 4 to 7 h. The “AUC with PPI vs without PPI” value [4] was “similar”, the “decrease of median Cmax by PPI” value [4] was “about 18%” and the “decrease of AUCinf by multiple doses of esomeprazole 40 mg” value ([4]; moderate-fat meal) was 11%. For the same compound, the “decrease of Cmax by multiple doses of esomeprazole 40 mg” value ([4]; moderate-fat meal) was 17.1%, the “sex differences in Cmax and AUC0-24” value ([5]; both, rat, in vivo) was “less than 2 fold” and the NOAEL ([5]; female rats, 3 months oral) was “a NOAEL was not determined”. It also gave an AUC(0-t) ([5]; female, rat, in vivo) of 75000 ng·h/mL, a Cmax ([5]; female, rat, in vivo) of 3710 ng/mL and an AUC(0-t) ([5]; male, rat, in vivo) of 88500 ng·h/mL. The Cmax ([5]; male, rat, in vivo) was 4330 ng/mL, the NOAEL at 3 months ([5]; rat, in vivo, male rats, 3 months oral) was 300 mg/kg/day and the bioavailability ([6]; mouse, dog, monkey, po, range across species) was 27 to 65%. For the same compound, the half-life ([6]; mouse, dog, monkey, range across species) was 2.1 to 8.2 h, the Vd ([6]; intravenous, read-out: VSS) was 6 L/kg and the “ER degradation with excess lenalidomide or with carfilzomib” value (ER) was “No degradation of ER”. For the same compound, the “maximum ER degradation” value (ER) was > 90%, the fraction unbound at 1 μM [7] was 0.061 and the binding (progesterone receptor) was “bound”.
